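96-well plates; 48 h exposure; 5 concentrations. Endpoints by linear interpolation between flanking doses. Not reached: highest tested concentration assigned. The concentration for 50% growth inhibition is given as GI50. Definition used: TGI = concentration required for complete inhibition of growth.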
What was measured:
Experiment in all cases: growth of human tumour cells (NCI), 48 h
HL-60(TB) leukemia = tested on: HL-60(TB) leukemia
OVCAR-4 ovarian = tested on: OVCAR-4 ovarian
SK-OV-3 ovarian = tested on: SK-OV-3 ovarian
MDA-MB-435 = tested on: MDA-MB-435
SR leukemia = tested on: SR leukemia
NCI-H23 lung = tested on: NCI-H23 lung
OVCAR-3 ovarian = tested on: OVCAR-3 ovarian
SNB-75 CNS = tested on: SNB-75 CNS
MCF7 breast = tested on: MCF7 breast
A498 renal = tested on: A498 renal
SN12C renal = tested on: SN12C renal
UACC-257 melanoma = tested on: UACC-257 melanoma
NCI-H460 lung = tested on: NCI-H460 lung
UO-31 renal = tested on: UO-31 renal
CCRF-CEM leukemia = tested on: CCRF-CEM leukemia
M14 melanoma = tested on: M14 melanoma
SK-MEL-5 melanoma = tested on: SK-MEL-5 melanoma
PC-3 prostate = tested on: PC-3 prostate
SK-MEL-28 melanoma = tested on: SK-MEL-28 melanoma
HOP-62 NSCLC = tested on: HOP-62 NSCLC
SF-295 CNS = tested on: SF-295 CNS
IGROV1 ovarian = tested on: IGROV1 ovarian
NCI-H226 lung = tested on: NCI-H226 lung
LOX IMVI melanoma = tested on: LOX IMVI melanoma
HS 578T breast = tested on: HS 578T breast
OVCAR-8 ovarian = tested on: OVCAR-8 ovarian
HCT-116 colon = tested on: HCT-116 colon
BT-549 breast = tested on: BT-549 breast
DU-145 prostate = tested on: DU-145 prostate
K-562 leukemia = tested on: K-562 leukemia
SW-620 colon = tested on: SW-620 colon
COLO 205 colon = tested on: COLO 205 colon
SF-268 CNS = tested on: SF-268 CNS
NCI/ADR-RES ovarian = tested on: NCI/ADR-RES ovarian
A549 NSCLC = tested on: A549 NSCLC
ACHN renal = tested on: ACHN renal
U251 CNS = tested on: U251 CNS
786-0 renal = tested on: 786-0 renal
RXF 393 renal = tested on: RXF 393 renal
MDA-MB-468 breast = tested on: MDA-MB-468 breast
UACC-62 melanoma = tested on: UACC-62 melanoma
OVCAR-5 ovarian = tested on: OVCAR-5 ovarian
MDA-MB-231 breast = tested on: MDA-MB-231 breast
SNB-19 CNS = tested on: SNB-19 CNS
T-47D breast = tested on: T-47D breast
EKVX NSCLC = tested on: EKVX NSCLC
HCT-15 colon = tested on: HCT-15 colon
NCI-H522 lung = tested on: NCI-H522 lung
HOP-92 NSCLC = tested on: HOP-92 NSCLC
HT29 colon = tested on: HT29 colon
SK-MEL-2 melanoma = tested on: SK-MEL-2 melanoma
RPMI-8226 leukemia = tested on: RPMI-8226 leukemia
KM12 colon = tested on: KM12 colon
CAKI-1 renal = tested on: CAKI-1 renal
SF-539 CNS = tested on: SF-539 CNS
HCC-2998 colon = tested on: HCC-2998 colon
MOLT-4 leukemia = tested on: MOLT-4 leukemia
MALME-3M melanoma = tested on: MALME-3M melanoma
TK-10 renal = tested on: TK-10 renal

O=C(CS(=O)(=O)c1oc(-c2ccc(Cl)cc2)nc1S(=O)(=O)c1ccc(Cl)cc1)N1CCOCC1
GI50 (HL-60(TB) leukemia): 4.49 µM
TGI (HL-60(TB) leukemia): 34.9 µM
GI50 (OVCAR-4 ovarian): 12.7 µM
TGI (OVCAR-4 ovarian): 27.6 µM
GI50 (SK-OV-3 ovarian): 40.8 µM
TGI (SK-OV-3 ovarian): > 100 µM
GI50 (MDA-MB-435): 12 µM
TGI (MDA-MB-435): 25.7 µM
GI50 (SR leukemia): 2860 nM
TGI (SR leukemia): > 100 µM
GI50 (NCI-H23 lung): 13.4 µM
TGI (NCI-H23 lung): 26.5 µM
GI50 (OVCAR-3 ovarian): 3.3 µM
TGI (OVCAR-3 ovarian): 10.5 µM
GI50 (SNB-75 CNS): 4.89 µM
TGI (SNB-75 CNS): 23.2 µM
GI50 (MCF7 breast): 4 µM
TGI (MCF7 breast): 18.5 µM
GI50 (A498 renal): 26.8 µM
TGI (A498 renal): 93.4 µM
GI50 (SN12C renal): 12.1 µM
TGI (SN12C renal): 25.8 µM
GI50 (UACC-257 melanoma): 15.4 µM
TGI (UACC-257 melanoma): 30.2 µM
GI50 (NCI-H460 lung): 16.5 µM
TGI (NCI-H460 lung): 39.4 µM
GI50 (UO-31 renal): 8.79 µM
TGI (UO-31 renal): 21.1 µM
GI50 (CCRF-CEM leukemia): 1680 nM
TGI (CCRF-CEM leukemia): 24.2 µM
GI50 (M14 melanoma): 6.75 µM
TGI (M14 melanoma): 21 µM
GI50 (SK-MEL-5 melanoma): 24.3 µM
TGI (SK-MEL-5 melanoma): 86.3 µM
GI50 (PC-3 prostate): 11.9 µM
TGI (PC-3 prostate): 31.5 µM
GI50 (SK-MEL-28 melanoma): 12.1 µM
TGI (SK-MEL-28 melanoma): 24.5 µM
GI50 (HOP-62 NSCLC): 18.1 µM
TGI (HOP-62 NSCLC): 47.3 µM
GI50 (SF-295 CNS): 16.9 µM
TGI (SF-295 CNS): 54.7 µM
GI50 (IGROV1 ovarian): 11 µM
TGI (IGROV1 ovarian): 23.7 µM
GI50 (NCI-H226 lung): 22.9 µM
TGI (NCI-H226 lung): 91 µM
GI50 (LOX IMVI melanoma): 1840 nM
TGI (LOX IMVI melanoma): 4.27 µM
GI50 (HS 578T breast): 7.9 µM
TGI (HS 578T breast): 36.4 µM
GI50 (OVCAR-8 ovarian): 15.4 µM
TGI (OVCAR-8 ovarian): 35.4 µM
GI50 (HCT-116 colon): 3.04 µM
TGI (HCT-116 colon): 11.4 µM
GI50 (BT-549 breast): 4.64 µM
TGI (BT-549 breast): 16.8 µM
GI50 (DU-145 prostate): 12.3 µM
TGI (DU-145 prostate): 24.8 µM
GI50 (K-562 leukemia): 2140 nM
TGI (K-562 leukemia): > 100 µM
GI50 (SW-620 colon): 2060 nM
TGI (SW-620 colon): 4.8 µM
GI50 (COLO 205 colon): 11.6 µM
TGI (COLO 205 colon): 55.9 µM
GI50 (SF-268 CNS): 15.1 µM
TGI (SF-268 CNS): 33.7 µM
GI50 (NCI/ADR-RES ovarian): 14.5 µM
TGI (NCI/ADR-RES ovarian): 31.2 µM
GI50 (A549 NSCLC): 45.9 µM
TGI (A549 NSCLC): > 100 µM
GI50 (ACHN renal): 3.17 µM
TGI (ACHN renal): 11.3 µM
GI50 (U251 CNS): 38 µM
TGI (U251 CNS): > 100 µM
GI50 (786-0 renal): 7.65 µM
TGI (786-0 renal): 21.8 µM
GI50 (RXF 393 renal): 2580 nM
TGI (RXF 393 renal): 8.82 µM
GI50 (MDA-MB-468 breast): 2520 nM
TGI (MDA-MB-468 breast): 8.07 µM
GI50 (UACC-62 melanoma): 11.1 µM
TGI (UACC-62 melanoma): 23.8 µM
GI50 (OVCAR-5 ovarian): 13.6 µM
TGI (OVCAR-5 ovarian): 31.6 µM
GI50 (MDA-MB-231 breast): 6.7 µM
TGI (MDA-MB-231 breast): 19.3 µM
GI50 (SNB-19 CNS): 27.5 µM
TGI (SNB-19 CNS): > 100 µM
GI50 (T-47D breast): 3.32 µM
TGI (T-47D breast): 16.3 µM
GI50 (EKVX NSCLC): 12.1 µM
TGI (EKVX NSCLC): 26.4 µM
GI50 (HCT-15 colon): 2270 nM
TGI (HCT-15 colon): 5.68 µM
GI50 (NCI-H522 lung): 1640 nM
TGI (NCI-H522 lung): 3.51 µM
GI50 (HOP-92 NSCLC): 10.7 µM
TGI (HOP-92 NSCLC): 28.6 µM
GI50 (HT29 colon): 4.32 µM
TGI (HT29 colon): 40.2 µM
GI50 (SK-MEL-2 melanoma): 16.7 µM
TGI (SK-MEL-2 melanoma): 32.4 µM
GI50 (RPMI-8226 leukemia): 5.2 µM
TGI (RPMI-8226 leukemia): > 100 µM
GI50 (KM12 colon): 29.5 µM
TGI (KM12 colon): > 100 µM
GI50 (CAKI-1 renal): 6.63 µM
TGI (CAKI-1 renal): 19.4 µM
GI50 (SF-539 CNS): 7.94 µM
TGI (SF-539 CNS): 20.5 µM
GI50 (HCC-2998 colon): 17.2 µM
TGI (HCC-2998 colon): 40.8 µM
GI50 (MOLT-4 leukemia): 2540 nM
TGI (MOLT-4 leukemia): 18.7 µM
GI50 (MALME-3M melanoma): 2810 nM
TGI (MALME-3M melanoma): 9.77 µM
GI50 (TK-10 renal): 14.3 µM
TGI (TK-10 renal): 27.8 µM

— PubChem BioAssay (NCI)
